Test results published in patent US7687435B2, “Benzoyl-substituted phenylalanineamides” (BASF Aktiengesellschaft, priority 2003, dated 2010).

Columns and labels:
[1] = test system: black bindweed; assay: greenhouse post-emergence herbicidal test, black bindweed; format: in vivo, Polygonum convolvulus
Source text: (§1) The seeds of the test plants were sown separately for each species. For the post-emergence treatment, the test plants were first grown to a height of 3 to 15 cm, depending on the plant habit, and only then treated with the active ingredients which had been suspended or emulsified in water. For this purpose, the test plants were either sown directly and grown in the same containers, or they were first grown separately as seedlings and transplanted into the test containers a few days prior to treatment. The rate of application for the post-emergence treatment was 1.0, 0.5, 0.25, 0.125 or 0.0625 kg/ha of a.s. (active substance). Depending on the species, the plants were kept at 10-25° C. or 20-35° C. The test period extended over 2 to 4 weeks. During this time, the plants were tended, and their response to the individual treatments was evaluated. Evaluation was carried out using a scale from 0 to 100. 100 means no emergence of the plants, or complete destruction of at least the aerial parts, and 0 means no damage, or normal course of growth. The plants used in the greenhouse experiments belonged to the following species: [table]

[2] = test system: lambsquarters; assay: greenhouse post-emergence herbicidal test, lambsquarters; format: in vivo, Chenopodium album
Source text: as §1

[3] = test system: pig weed; assay: greenhouse post-emergence herbicidal test, pig weed; format: in vivo, Amaranthus retroflexus
Source text: as §1

[4] = test system: green foxtail; assay: greenhouse post-emergence herbicidal test, green foxtail; format: in vivo, Setaria viridis
Source text: as §1

[5] = test system: cleavers harrif; assay: greenhouse post-emergence herbicidal test, cleavers harrif; format: in vivo, Galium aparine
Source text: as §1

[6] = test system: velvet leaf; assay: greenhouse post-emergence herbicidal test, velvet leaf; format: in vivo, Abutilon theophrasti; conditions: application rate 0.5 kg/ha
Source text: as §1

[7] = test system: wild oat; assay: greenhouse post-emergence herbicidal test, wild oat; format: in vivo, Avena fatua; conditions: application rate 0.5 kg/ha
Source text: as §1

With CNC(=O)C(NC(=O)c1ccc(F)cc1C(F)(F)F)C(O)c1ccccc1COS(C)(=O)=O (stereo not shown) [Compound 3.65] the “post-emergence action on black bindweed” value ([1]; application rate 0.5 kg/ha) was “very good”, the “post-emergence action against lambsquarters” value ([2]; application rate 0.5 kg/ha) was “very good” and the “post-emergence action against pig weed” value ([3]; application rate 0.5 kg/ha) was “very good”.

With CNC(=O)C(NC(=O)c1ccc(F)cc1C(F)(F)F)C(O)c1ccccc1COC(C)=O (stereo not shown) [Compound 3.62] the “post-emergence action against lambsquarters” value ([2]; application rate 0.5 kg/ha) was “very good”, the “post-emergence action against green foxtail” value ([4]; application rate 0.5 kg/ha) was “very good” and the “post-emergence action against pig weed” value ([3]; application rate 0.5 kg/ha) was “very good”. For the same compound, the “post-emergence control of cleavers harrif” value ([5]; application rate 0.5 kg/ha) was “very good”.

With CNC(=O)C(NC(=O)c1ccc(F)cc1C(F)(F)F)C(OC(=O)N(C)C)c1ccccc1C (stereo not shown) [Compound 3.28] the “post-emergence action against lambsquarters” value ([2]; application rate 1.00 kg/ha) was “very good”, the “post-emergence action against green foxtail” value ([4]; application rate 1.00 kg/ha) was “very good” and the “post-emergence action against pig weed” value ([3]; application rate 1.00 kg/ha) was “very good”.

In the case of CC[Si](CC)(CC)OCc1ccccc1C(O[Si](CC)(CC)CC)C(NC(=O)c1ccc(F)cc1C(F)(F)F)C(=O)NC (stereo not shown) [Compound 3.152], the “post-emergence action against lambsquarters” value ([2]; application rate 1.00 kg/ha) is reported as “very good”, the “post-emergence action against green foxtail” value ([4]; application rate 1.00 kg/ha) is reported as “very good” and the “post-emergence action against pig weed” value ([3]; application rate 1.00 kg/ha) is reported as “very good”. The “post-emergence control of cleavers harrif” value ([5]; application rate 1.0 kg/ha) was “very good”.

With CNC(=O)C(NC(=O)c1cccc([N+](=O)[O-])c1C)C(O)c1ccccc1 (racemic) [Compound 5.20] the “post-emergence action on velvet leaf” value [6] was “very good”.

With CNC(=O)C(NC(=O)c1ccc(F)cc1C(F)(F)F)C(c1ccccc1)N(C=O)Cc1ccccc1 (stereo not shown) [Compound 3.43, N-[2-(N-Benzyl-N-formylamino)-1-methylcarbamoyl-2-phenylethyl]-4-fluoro-2-trifluoromethylbenzamide] the melting point was 212 °C.

With CNC(=O)[C@@H](NC(=O)c1ccc(F)cc1C(F)(F)F)[C@H](OC(=O)COCCOCCOC)c1ccc(F)c(F)c1F [Compound 4.24] the “post-emergence action against lambsquarters” value ([2]; application rate 0.5 kg/ha) was “very good”, the “post-emergence action against green foxtail” value ([4]; application rate 0.5 kg/ha) was “very good” and the “post-emergence action against pig weed” value ([3]; application rate 0.5 kg/ha) was “very good”. The “post-emergence control of cleavers harrif” value ([5]; application rate 0.5 kg/ha) was “very good”.

With CNC(=O)C(NC(=O)c1ccccc1C(F)(F)F)C(O)c1ccccc1 (racemic) [Compound 3.2] the “post-emergence action against lambsquarters” value ([2]; application rate 1.00 kg/ha) was “very good”, the “post-emergence action against green foxtail” value ([4]; application rate 1.00 kg/ha) was “very good” and the “post-emergence action against pig weed” value ([3]; application rate 1.00 kg/ha) was “very good”.

For CNC(=O)C(NC(=O)c1ccc(F)cc1C(F)(F)F)C(OC(=O)N(C)C)c1ccccc1COC(=O)N(C)C (stereo not shown) [Compound 3.131], the “post-emergence action on black bindweed” value ([1]; application rate 0.5 kg/ha) was “very good”, the “post-emergence action against lambsquarters” value ([2]; application rate 0.5 kg/ha) was “very good” and the “post-emergence action against pig weed” value ([3]; application rate 0.5 kg/ha) was “very good”. For the same compound, the “post-emergence control of cleavers harrif” value ([5]; application rate 0.5 kg/ha) was “very good”.

With CNC(=O)C(NC(=O)c1ccc(F)cc1C(F)(F)F)C(OC(=O)COCCOCCOC)c1ccccc1COC(=O)COCCOCCOC (stereo not shown) [Compound 3.96] the “post-emergence action on black bindweed” value ([1]; application rate 0.5 kg/ha) was “very good”, the “post-emergence action against lambsquarters” value ([2]; application rate 0.5 kg/ha) was “very good” and the “post-emergence action against pig weed” value ([3]; application rate 0.5 kg/ha) was “very good”. For the same compound, the “post-emergence control of cleavers harrif” value ([5]; application rate 0.5 kg/ha) was “very good”.

For CNC(=O)[C@@H](NC(=O)c1ccc(F)cc1C(F)(F)F)[C@H](OC(=O)NS(=O)(=O)C(F)(F)F)c1cccc(F)c1C [Compound 3.137], the “post-emergence action on black bindweed” value ([1]; application rate 1.00 kg/ha) was “very good”, the “post-emergence action against lambsquarters” value ([2]; application rate 1.00 kg/ha) was “very good” and the “post-emergence action against pig weed” value ([3]; application rate 1.00 kg/ha) was “very good”.

For CNC(=O)C(NC(=O)c1ccccc1OC(F)(F)F)C(O)c1ccccc1 (racemic) [Compound 5.36], the “post-emergence action on velvet leaf” value [6] was “very good”.

With CNC(=O)C(NC(=O)c1ccc(F)cc1C(F)(F)F)C(O)c1ccccc1CO (stereo not shown) [Compound 3.61] the “post-emergence action on black bindweed” value ([1]; application rate 0.5 kg/ha) was “very good”, the “post-emergence action against lambsquarters” value ([2]; application rate 0.5 kg/ha) was “very good” and the “post-emergence action against pig weed” value ([3]; application rate 0.5 kg/ha) was “very good”. For the same compound, the “post-emergence control of cleavers harrif” value ([5]; application rate 0.5 kg/ha) was “very good”.

With CNC(=O)[C@@H](NC(=O)c1ccc(F)cc1C(F)(F)F)[C@H](O)c1cccc(Cl)c1C [Compound 3.11] the “post-emergence action against lambsquarters” value ([2]; application rate 1.00 kg/ha) was “very good”, the “post-emergence action against green foxtail” value ([4]; application rate 1.00 kg/ha) was “very good” and the “post-emergence action against pig weed” value ([3]; application rate 1.00 kg/ha) was “very good”.

In the case of CNC(=O)C(NC(=O)c1ccccc1SC(F)F)C(O)c1ccccc1 (racemic) [Compound 5.37], the “post-emergence control of wild oat” value [7] is reported as “controlled” and the “post-emergence action on velvet leaf” value [6] is reported as “controlled”.

For CNC(=O)C(NC(=O)c1ccc(F)cc1C(F)(F)F)C(OC(=O)N(C)C)c1cccc(N)c1 (racemic) [Compound 3.123], the “post-emergence action on black bindweed” value ([1]; application rate 1.00 kg/ha) was “very good”, the “post-emergence action against lambsquarters” value ([2]; application rate 1.00 kg/ha) was “very good” and the “post-emergence action against pig weed” value ([3]; application rate 1.00 kg/ha) was “very good”.

For CNC(=O)C(NC(=O)c1ccc(F)cc1C(F)(F)F)C(O)c1ccccc1OCc1ccccc1 (stereo not shown) [Compound 3.66], the “post-emergence action against lambsquarters” value ([2]; application rate 1.00 kg/ha) was “very good”, the “post-emergence action against green foxtail” value ([4]; application rate 1.00 kg/ha) was “very good” and the “post-emergence action against pig weed” value ([3]; application rate 1.00 kg/ha) was “very good”.

With CNC(=O)C(NC(=O)c1ccc(F)cc1C(F)(F)F)C(O)c1ccccc1[N+](=O)[O-] (racemic) [Compound 3.67] the “post-emergence action against lambsquarters” value ([2]; application rate 1.00 kg/ha) was “very good”, the “post-emergence action against green foxtail” value ([4]; application rate 1.00 kg/ha) was “very good” and the “post-emergence action against pig weed” value ([3]; application rate 1.00 kg/ha) was “very good”.

With CNC(=O)C(NC(=O)c1ccc(F)cc1C(F)(F)F)C(O[Si](C)(C)C(C)(C)C)c1ccccc1 (racemic) [Compound 3.154] the “post-emergence action on black bindweed” value ([1]; application rate 1.00 kg/ha) was “very good”, the “post-emergence action against lambsquarters” value ([2]; application rate 1.00 kg/ha) was “very good” and the “post-emergence action against green foxtail” value ([4]; application rate 1.00 kg/ha) was “very good”. The “post-emergence action against pig weed” value ([3]; application rate 1.00 kg/ha) was “very good” and the “post-emergence control of cleavers harrif” value ([5]; application rate 1.0 kg/ha) was “very good”.

In the case of CNC(=O)[C@@H](NC(=O)c1ccc(F)cc1C(F)(F)F)[C@H](O)c1cccc(F)c1C [Compound 3.10], the “post-emergence action against lambsquarters” value ([2]; application rate 1.00 kg/ha) is reported as “very good”, the “post-emergence action against green foxtail” value ([4]; application rate 1.00 kg/ha) is reported as “very good” and the “post-emergence action against pig weed” value ([3]; application rate 1.00 kg/ha) is reported as “very good”.

For CNC(=O)C(NC(=O)c1ccc(F)cc1C(F)(F)F)C(OC(=O)N(C)C)c1cccc(NS(C)(=O)=O)c1 (racemic) [Compound 3.128], the “post-emergence action against lambsquarters” value ([2]; application rate 1.00 kg/ha) was “very good”, the “post-emergence action against green foxtail” value ([4]; application rate 1.00 kg/ha) was “very good” and the “post-emergence action against pig weed” value ([3]; application rate 1.00 kg/ha) was “very good”.
